Data reported in publication PMC8311463, “Cyclotides Isolated From Violet Plants of Cameroon Are Inhibitors of Human Prolyl Oligopeptidase” (Frontiers in Pharmacology, 2021).
Each block holds one compound with its values, some of them ahead of it. Bridge positions count the residues as written; N and C are the ends. Peptide text beside a SMILES is read from it. * marks the point of attachment. AMC = Cc1cc(=O)oc2cc(N*)ccc12; Cbz = O=C(OCc1ccccc1)*

Experiments:
[1] = system: POP; conditions: clinical phase 1 and 2; ref López et al., 2013; cited from earlier work
Text: Ethnomedicinal studies have shown beneficial effects of cyclotide expressing plants in few disease conditions with relationship to POP. For instance, African traditional medicine describes the therapeutic application of Rinorea dentata (P. Beauv.) Kuntze from the Violaceae toward neurodegenerative diseases ([Sonibare and Ayoola, 2015]). […] To make use of these beneficial effects it will be necessary to further investigate P ...

[2] = Precipitation of the substrate in POP assay; format: physicochemical; conditions: optimized POP assay conditions, tested between 0.766 µM and 300 µM
Description: Supplementary Figure S3. POP purification and optimization of the assay system.Human POP wa s expressed in E. coliand purified as functional protease. The purification steps were analyzed using a Coomassie stained protein gel. Purifi ed POP enzyme is shown in lane 7 after site-specific cleavage with PreS cissi on protease and rel ease of the untagg ed protein (A). Different assay conditions were tested to study the effect of buffer sy stems and pH dependency (B,C), the use of organi c solve nts (D), DTT (E) and NaCl (F) concentration on POP enzyme activ ity. For calculation of POP activ ity the slope in the li near range between 5 and 35 mi n of kinetic measurements were used. With the optim ized conditionsZ-Gly-Pro-amino-coumarin concentrations between 0.766 µM and 300 µM were tested in a kinetic measurement and a con centration dependent increase in sig nal was observed. Above 150 µM substrate concentration no further increase in sig nal was measured due to preci pitation of the substra te (G). Al l data are shown as mean of three biologi cal experim ents and error is shown as ±SEM.
(1 picture or pasted object on this page, not shown here)

[3] = target: T1, human POP (Homo sapiens, UniProt P48147); assay: POP enzyme kinetics (Michaelis-Menten) with Z-Gly-Pro-amino-coumarin; format: biochemical; conditions: substrate Z-Gly-Pro-amino-coumarin, optimized assay buffer 20 mM Hepes pH 7.2, 150 mM NaCl, 1 mM EDTA, 0.5 mM DTT
T1 construct: the full-length untagged protein was obtained after site-specific cleavage; GST (N, cleaved yes); made in house; host or cells: Escherichia coli BL21 (D3 [sic] strain)
T1 sequence (P48147 1-710): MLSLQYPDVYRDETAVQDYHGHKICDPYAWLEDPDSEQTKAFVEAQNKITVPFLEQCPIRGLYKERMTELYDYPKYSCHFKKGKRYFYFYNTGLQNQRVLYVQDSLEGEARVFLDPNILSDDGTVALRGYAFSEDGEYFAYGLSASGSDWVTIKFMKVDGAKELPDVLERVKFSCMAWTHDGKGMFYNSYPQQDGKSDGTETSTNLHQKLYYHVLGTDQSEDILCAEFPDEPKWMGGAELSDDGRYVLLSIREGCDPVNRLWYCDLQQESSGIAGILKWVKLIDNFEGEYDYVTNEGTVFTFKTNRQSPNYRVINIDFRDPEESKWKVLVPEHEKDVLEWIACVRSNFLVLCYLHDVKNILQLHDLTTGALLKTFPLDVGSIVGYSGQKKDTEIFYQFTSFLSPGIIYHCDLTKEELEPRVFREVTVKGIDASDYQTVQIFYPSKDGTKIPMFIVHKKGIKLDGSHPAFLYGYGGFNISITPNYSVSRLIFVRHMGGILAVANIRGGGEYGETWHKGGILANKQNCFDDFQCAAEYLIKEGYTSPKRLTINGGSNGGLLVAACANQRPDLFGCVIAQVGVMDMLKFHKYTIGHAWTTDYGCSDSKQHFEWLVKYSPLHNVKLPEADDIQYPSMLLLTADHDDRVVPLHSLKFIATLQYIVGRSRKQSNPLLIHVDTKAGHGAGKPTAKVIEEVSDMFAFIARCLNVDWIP
Description: The POP inhibition assays were carried out similarly as recently described ([Hellinger et al., 2015a]; [Retzl et al., 2020]) using a bacterial expressed POP enzyme. Human POP cDNA (accession NM:002726.4) was inserted into a pGEX-6P1 expression vector using the EcoRI and XhoI sites (Genescript, Leiden, Netherlands) and expressed in Escherichia coli (BL21 D3 strain). Protein expression was induced by addition of 0.3–0.5 mM isopropyl-β-D-thiogalactopyranoside (ProteinArk, Rotterdam, Netherlands) at an optical density (OD600) between 0.6 and 0.8 to the bacterial culture and incubated at 25°C under constant shaking. The protein was harvested at an OD600 between 1.4 and 1.5. POP was purified via GST-affinity capture beads. […] The protein concentration was determined with bicinchoninic acid assay (ThermoFisher). […] The protease activity was quantified as fluorescence from the proteolytically cleaved amino-coumarin fluorophore with excitation 380 nm and emission 420 nm on a Biotek Synergy H4 plate reader. The fluorogenic substrate provide elevated fluorescence by the delocalization of electrons after the amide bond cleavage and release of the 7 amino coumarin moiety. […] The percent remaining POP activity was calculated as I = (vi/vo)*100. […]

[4] = target: T1, human POP; assay: POP inhibition assay, Z-Gly-Pro-amino-coumarin substrate; format: biochemical
Description: The POP inhibition assays were carried out similarly as recently described ([Hellinger et al., 2015a]; [Retzl et al., 2020]) using a bacterial expressed POP enzyme. […] For enzyme inhibition assays human POP (50 ng/well) was incubated in assay buffer (20 mM Hepes pH 7.2, 150 mM NaCl, 1 mM EDTA, 0.5 mM DTT) together with substrate Z-Gly-Pro-amino-coumarin (final concentration 45 µM) at 37°C for 60 min. […] All experiments were performed in 96-microtiter black bottom plates. Concentration-response inhibition assays were performed with [S] = K m, which is considered a suitable condition for evaluating samples of unknown inhibition mode (e.g. competitive, noncompetitive or uncompetitive reversible inhibition). The protease activity was quantified as fluorescence from the proteolytically cleaved amino-coumarin fluorophore with excitation 380 nm and emission 420 nm on a Biotek Synergy H4 plate reader. The fluorogenic substrate provide elevated fluorescence by the delocalization of electrons after the amide bond cleavage and release of the 7 amino coumarin moiety. All samples for protease inhibition assays were prepared in ddH2O. Concentration-dependent inhibition studies were performed with the peptide enriched extracts (2–1,000 μg/ml) or isolated peptides (0.1–60 µM). For bioassay-guided isolation HPLC fractions were assayed for POP inhibition with three concentrations (4, 20 and 100 μg/ml). Kinetic measurements were carried out to obtain initial velocities in the presence of sample (vi) or enzyme alone (vo) ([Arnison et al., 2013]). The percent remaining POP activity was calculated as I = (vi/vo)*100. A substrate background was used for correction of all measurements. KYP-2047, a specific POP inhibitor, was used as positive control in the assays. […] Four parameter non-linear regression curve fits were obtained using GraphPad Prism v5.0 fitting algorithms with equation Y=Bottom + (Top-Bottom)/(1 + 10^((LogIC50-X)*Hill Slope)) in which X is the log dose and Y the measured response.

[5] = system: POP; set-up: method as in 3 sources, ref Hellinger et al., 2015a ||| ref Tarrago et al., 2007; Tarragó et al., 2008; Cahlíková et al., 2015 ||| ref Retzl et al., 2020; conditions: cited from earlier work; for POP inhibition (in words): alkaloids and flavonoids, ref Tarrago et al., 2007, Tarragó et al., 2008, Cahlíková et al., 2015
Description: Previous phytochemical studies identified natural products as inhibitors for POP such as small molecule entities and natural peptides. […] A sequence logo was prepared to compare the amino acid positions for conserved residues or to identify variable positions (Figure 7C).

Compound: O=C(CO)[C@@H]1CCCN1C(=O)[C@@H]1CCCN1C(=O)NCc1ccccc1 [JTP-4819]
clinical outcome (in words) [1]: failed to succeed or provided ambiguous outcomes in their clinical phase

substrate concentration above which precipitation of the substrate occurs [2]: Above 150 µM
K m [3]: 42.4 µM
Vmax [3]: 0.00015 µmol/min
Compound: Cc1cc(=O)oc2cc(NC(=O)[C@@H]3CCCN3C(=O)CNC(=O)OCc3ccccc3)ccc12 [Z-Gly-Pro-amino-coumarin] (Cbz-Gly-Pro-{AMC})

Compound: CC[C@H](C)[C@@H]1NC(=O)[C@H](C)NC(=O)[C@H](C)NC(=O)[C@H](CO)NC(=O)[C@H]([C@@H](C)CC)NC(=O)[C@@H]2CSSC[C@@H]3NC(=O)[C@H](C(C)C)NC(=O)[C@H](CCCCN)NC(=O)[C@H](CC(N)=O)NC(=O)[C@H](CCCCN)NC(=O)[C@@H]4CSSC[C@H](NC(=O)[C@H](CO)NC(=O)[C@H](CCC(=O)O)NC(=O)CNC(=O)[C@H](CSSC[C@H](NC(=O)CNC1=O)C(=O)N[C@@H](CO)C(=O)N4)NC(=O)[C@@H]1CCCN1C(=O)[C@H]([C@@H](C)CC)NC(=O)[C@H](C(C)C)NC(=O)CNC(=O)[C@H](CC(=O)O)NC(=O)[C@H](CCCNC(=N)N)NC(=O)[C@H](Cc1ccc(O)cc1)NC3=O)C(=O)N[C@@H](C(C)C)C(=O)N[C@@H](Cc1ccccc1)C(=O)N[C@@H]([C@@H](C)CC)C(=O)N1CCC[C@H]1C(=O)N2 [alca 1] (cyclo(AAIGCSCKNKVCYRDGVIPCGESCVFIPCIS); disulfide 5-20, 7-24, 12-29)
IC50 [4]: 8.5 ± 5.9 µM
Hill slope ([4]; sigmoidal inhibition curves of isolated peptides, four parameter non-linear regression, mean ± standard deviation, three or five biological experiments, respectively (alca 1, alca 2)): −1.2 ± 0.1

Compound: CC[C@H](C)[C@@H]1NC(=O)[C@@H]2CSSC[C@@H]3NC(=O)[C@H](C(C)C)NC(=O)[C@H](CCCCN)NC(=O)[C@H](CC(N)=O)NC(=O)[C@H](CO)NC(=O)[C@@H]4CSSC[C@H](NC(=O)[C@H](CO)NC(=O)[C@H](CCC(=O)O)NC(=O)CNC(=O)[C@H](CSSC[C@H](NC(=O)CNC(=O)[C@H](CC(C)C)NC(=O)[C@H](C(C)C)NC(=O)CNC(=O)[C@H](CO)NC1=O)C(=O)N[C@@H](CO)C(=O)N4)NC(=O)[C@@H]1CCCN1C(=O)[C@H]([C@@H](C)CC)NC(=O)CNC(=O)[C@H](CC(N)=O)NC(=O)[C@H](CCCNC(=N)N)NC(=O)[C@H](Cc1ccc(O)cc1)NC3=O)C(=O)N[C@@H](C(C)C)C(=O)N[C@@H](Cc1ccccc1)C(=O)N[C@@H]([C@@H](C)CC)C(=O)N1CCC[C@H]1C(=O)N2 [alca 2] (cyclo(CGESCVFIPCISGVLGCSCSNKVCYRNGIP); disulfide 1-17, 5-19, 10-24)
IC50 [4]: 4.4 ± 0.7 µM

Compound: O=c1cc(-c2ccccc2)oc2cc(O)c(O)c(O)c12 [balcalein]
POP inhibition (in words) [5]: inhibit POP activity

Compound: COc1ccc2cc3[n+](cc2c1OC)CCc1cc2c(cc1-3)OCO2 [berberine]
POP inhibition (in words) [5]: inhibit POP activity

Compound: C[N+]1(C)[C@H]2Cc3cc4c(cc3[C@@H]1Cc1cc3c(cc12)COC3)OCO4 [californidine]
POP inhibition (in words) [5]: inhibit POP activity

Compound: kalata B1: cyclotide, amongst others in V. tricolor L., Moebius type (cyclo(GLPVCGETCVGGTCNTPGCTCSWPVCTRN); disulfide 14-26, 5-19, 9-21; UniProt P56254 89-117, looked up)
IC50 ([5]; POP, ref Hellinger et al., 2015a, read-out: half maximal inhibitory concentration (IC50)): 5.6 µM
